Laboratory results reported in the NIST ThermoML archive (doi:10.1021/je700191v).
± gives the expanded uncertainty stated by the source.

Experiment: mn = molality of the nth substance listed, in mol/kg
Settings: 101 kPa, Liquid

CC1(C)S[C@@H]2[C@H](NC(=O)Cc3ccccc3)C(=O)N2[C@H]1C(=O)[O-].[K+] + O
mass density [kg/m3]
Settings	293.15 K	298.15 K	303.15 K	308.15 K
m1 = 0.01891	1000.62 ± 0.35	999.45 ± 0.35	–	–
m1 = 0.01952	–	–	998.081 ± 0.35	996.399 ± 0.36
m1 = 0.03888	–	–	1000.47 ± 0.35	998.73 ± 0.35
m1 = 0.03922	1003.15 ± 0.36	1001.98 ± 0.35	–	–
m1 = 0.05831	–	–	1002.85 ± 0.36	1001.06 ± 0.35
m1 = 0.05967	1005.7 ± 0.37	1004.5 ± 0.36	–	–
m1 = 0.07995	–	–	1005.48 ± 0.37	1003.59 ± 0.36
m1 = 0.08039	1008.26 ± 0.38	1007.04 ± 0.38	–	–
m1 = 0.1	–	–	1007.88 ± 0.38	1006.02 ± 0.37
m1 = 0.1008	1010.74 ± 0.39	1009.5 ± 0.39	–	–
m1 = 0.1193	–	–	1010.19 ± 0.39	1008.28 ± 0.38
m1 = 0.1217	1013.28 ± 0.4	1011.99 ± 0.39	–	–
